Laboratory results as given in ChEMBL document CHEMBL5465560, “Selectivity Literature for EUbOPEN Chemogenomic Library” (2024).

Columns and labels:
[1] = biological target: Transient receptor potential cation channel subfamily M member 6 (Homo sapiens) (UniProt Q9BX84); assay: Selectivity interaction (KinomeScan (DiscoverX)) EUB0000229b TRPM6; conditions: at 10 µM
[2] = biological target: Tyrosine-protein kinase FRK (Homo sapiens) (UniProt P42685); assay: Selectivity interaction (KinomeScan (DiscoverX)) EUB0000092b FRK; conditions: at 10 µM
Chain of Tyrosine-protein kinase FRK (Homo sapiens) (P42685 whole entry): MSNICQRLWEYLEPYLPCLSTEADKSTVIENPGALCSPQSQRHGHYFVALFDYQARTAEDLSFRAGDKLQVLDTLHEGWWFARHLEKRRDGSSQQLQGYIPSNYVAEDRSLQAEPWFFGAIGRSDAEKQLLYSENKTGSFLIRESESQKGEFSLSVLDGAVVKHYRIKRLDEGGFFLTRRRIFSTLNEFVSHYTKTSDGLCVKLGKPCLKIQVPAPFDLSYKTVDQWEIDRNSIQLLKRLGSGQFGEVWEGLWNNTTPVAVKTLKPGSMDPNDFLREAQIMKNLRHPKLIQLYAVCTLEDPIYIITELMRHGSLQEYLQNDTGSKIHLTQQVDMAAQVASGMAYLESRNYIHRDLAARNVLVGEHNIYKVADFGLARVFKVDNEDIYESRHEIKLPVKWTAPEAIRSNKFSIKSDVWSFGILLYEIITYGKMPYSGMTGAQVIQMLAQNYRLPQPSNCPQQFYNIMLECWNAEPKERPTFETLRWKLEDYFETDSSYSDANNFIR

[3] = biological target: T1, Tyrosine-protein kinase JAK3 (Homo sapiens) (UniProt P52333); assay: Selectivity interaction (KinomeScan (DiscoverX)) EUB0000655a JAK3; conditions: at 10 µM
T1 sequence (whole entry): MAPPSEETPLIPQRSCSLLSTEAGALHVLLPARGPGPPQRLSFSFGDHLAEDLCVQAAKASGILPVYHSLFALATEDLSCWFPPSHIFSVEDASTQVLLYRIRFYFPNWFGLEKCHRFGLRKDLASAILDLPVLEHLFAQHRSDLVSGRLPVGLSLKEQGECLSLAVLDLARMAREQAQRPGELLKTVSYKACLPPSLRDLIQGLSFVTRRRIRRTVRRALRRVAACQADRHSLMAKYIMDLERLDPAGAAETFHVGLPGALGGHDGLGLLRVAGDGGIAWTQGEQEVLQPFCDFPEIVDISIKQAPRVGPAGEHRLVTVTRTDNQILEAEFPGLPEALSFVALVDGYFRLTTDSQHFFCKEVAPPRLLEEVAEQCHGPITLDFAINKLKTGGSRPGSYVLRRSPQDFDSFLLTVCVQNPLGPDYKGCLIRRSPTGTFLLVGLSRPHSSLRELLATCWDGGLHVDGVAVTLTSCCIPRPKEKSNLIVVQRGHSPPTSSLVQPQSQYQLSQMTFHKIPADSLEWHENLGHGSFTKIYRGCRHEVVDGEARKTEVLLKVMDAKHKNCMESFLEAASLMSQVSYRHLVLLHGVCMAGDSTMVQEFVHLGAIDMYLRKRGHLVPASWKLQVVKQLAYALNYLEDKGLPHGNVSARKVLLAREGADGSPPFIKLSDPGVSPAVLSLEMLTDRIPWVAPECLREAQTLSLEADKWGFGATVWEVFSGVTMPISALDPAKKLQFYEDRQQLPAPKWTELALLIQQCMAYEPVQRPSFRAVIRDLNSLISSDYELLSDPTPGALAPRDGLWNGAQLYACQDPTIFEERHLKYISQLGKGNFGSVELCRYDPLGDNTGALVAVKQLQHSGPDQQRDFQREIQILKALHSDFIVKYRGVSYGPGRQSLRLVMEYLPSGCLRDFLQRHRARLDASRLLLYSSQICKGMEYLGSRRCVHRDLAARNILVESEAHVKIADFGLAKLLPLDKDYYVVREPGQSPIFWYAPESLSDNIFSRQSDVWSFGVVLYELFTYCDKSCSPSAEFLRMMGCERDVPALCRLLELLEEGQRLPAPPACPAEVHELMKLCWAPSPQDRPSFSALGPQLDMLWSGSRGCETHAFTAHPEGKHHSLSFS

[4] = biological target: Phosphatidylinositol 4-kinase beta (Homo sapiens, UniProt Q9UBF8); assay: Selectivity interaction (Enzyme panel (AstraZeneca, AlphaScreen, functional assay)) EUB0000621a PI4KB
Chain of Phosphatidylinositol 4-kinase beta (Q9UBF8 whole entry): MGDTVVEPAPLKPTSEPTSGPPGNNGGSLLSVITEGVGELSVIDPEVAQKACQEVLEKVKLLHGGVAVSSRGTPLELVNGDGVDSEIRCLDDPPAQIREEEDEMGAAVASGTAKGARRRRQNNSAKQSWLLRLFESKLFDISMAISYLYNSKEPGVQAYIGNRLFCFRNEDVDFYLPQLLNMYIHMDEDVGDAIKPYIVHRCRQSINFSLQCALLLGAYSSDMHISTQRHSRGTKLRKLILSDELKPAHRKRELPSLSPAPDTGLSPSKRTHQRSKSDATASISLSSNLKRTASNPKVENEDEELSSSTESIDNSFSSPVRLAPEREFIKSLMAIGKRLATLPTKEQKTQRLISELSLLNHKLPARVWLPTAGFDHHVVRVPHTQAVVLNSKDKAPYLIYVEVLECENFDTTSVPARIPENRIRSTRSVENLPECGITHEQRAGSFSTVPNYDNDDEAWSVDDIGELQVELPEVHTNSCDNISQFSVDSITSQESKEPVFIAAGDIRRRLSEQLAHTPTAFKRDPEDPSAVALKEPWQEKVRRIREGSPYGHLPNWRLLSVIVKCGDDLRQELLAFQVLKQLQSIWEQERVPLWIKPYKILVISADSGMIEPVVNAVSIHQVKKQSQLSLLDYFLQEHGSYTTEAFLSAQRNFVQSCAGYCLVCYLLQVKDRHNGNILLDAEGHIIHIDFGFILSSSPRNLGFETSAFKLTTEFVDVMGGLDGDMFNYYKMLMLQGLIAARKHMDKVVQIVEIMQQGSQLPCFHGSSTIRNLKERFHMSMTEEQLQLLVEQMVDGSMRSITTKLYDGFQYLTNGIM

[5] = biological target: Serine/threonine-protein kinase Nek7 (Homo sapiens) (UniProt Q8TDX7); assay: Selectivity interaction (Kinase panel (Z-LYTE Assay)) EUB0001632a NEK7; conditions: at 10 µM
Chain of Serine/threonine-protein kinase Nek7 (Homo sapiens) (Q8TDX7 whole entry, looked up): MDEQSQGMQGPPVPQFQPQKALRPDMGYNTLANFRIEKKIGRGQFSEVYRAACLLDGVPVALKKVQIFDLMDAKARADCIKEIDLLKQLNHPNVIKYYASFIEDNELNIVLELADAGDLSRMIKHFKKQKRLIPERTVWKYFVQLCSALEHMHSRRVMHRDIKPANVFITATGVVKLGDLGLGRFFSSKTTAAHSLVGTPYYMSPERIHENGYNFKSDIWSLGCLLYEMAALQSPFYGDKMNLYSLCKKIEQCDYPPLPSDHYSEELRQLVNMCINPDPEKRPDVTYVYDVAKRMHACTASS

[6] = biological target: Mitogen-activated protein kinase kinase kinase 10 (Homo sapiens) (UniProt Q02779); assay: Selectivity interaction (KinomeScan (DiscoverX)) EUB0001049a MAP3K10; conditions: at 1 µM
[7] = biological target: T2, Rhodopsin kinase GRK7 (Homo sapiens) (UniProt Q8WTQ7); assay: Selectivity interaction (KinomeScan (DiscoverX)) EUB0001049a GRK7; conditions: at 1 µM
T2 sequence (whole entry): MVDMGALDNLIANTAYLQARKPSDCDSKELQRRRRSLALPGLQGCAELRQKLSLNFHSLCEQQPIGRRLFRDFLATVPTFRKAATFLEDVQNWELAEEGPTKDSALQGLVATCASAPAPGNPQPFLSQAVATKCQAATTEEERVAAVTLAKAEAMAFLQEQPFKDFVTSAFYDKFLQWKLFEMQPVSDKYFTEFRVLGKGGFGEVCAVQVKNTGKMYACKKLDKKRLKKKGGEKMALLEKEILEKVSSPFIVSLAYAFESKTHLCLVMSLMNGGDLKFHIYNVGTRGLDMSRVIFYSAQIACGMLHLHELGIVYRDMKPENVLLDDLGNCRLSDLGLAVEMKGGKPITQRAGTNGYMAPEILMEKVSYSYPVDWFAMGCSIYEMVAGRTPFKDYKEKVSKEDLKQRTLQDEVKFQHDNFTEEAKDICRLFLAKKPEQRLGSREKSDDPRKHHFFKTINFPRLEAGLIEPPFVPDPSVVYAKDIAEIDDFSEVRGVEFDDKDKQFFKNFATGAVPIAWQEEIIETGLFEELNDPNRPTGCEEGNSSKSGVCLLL

[8] = tested on: Receptor-type tyrosine-protein kinase FLT3 (Homo sapiens), P36888 [UNDEFINED MUTATION]; assay: Selectivity interaction (KinomeScan (DiscoverX)) EUB0000695a FLT3; conditions: at 100 nM
Chain of Receptor-type tyrosine-protein kinase FLT3 (Homo sapiens), P36888 [UNDEFINED MUTATION] (P36888 whole entry, looked up, change not shown): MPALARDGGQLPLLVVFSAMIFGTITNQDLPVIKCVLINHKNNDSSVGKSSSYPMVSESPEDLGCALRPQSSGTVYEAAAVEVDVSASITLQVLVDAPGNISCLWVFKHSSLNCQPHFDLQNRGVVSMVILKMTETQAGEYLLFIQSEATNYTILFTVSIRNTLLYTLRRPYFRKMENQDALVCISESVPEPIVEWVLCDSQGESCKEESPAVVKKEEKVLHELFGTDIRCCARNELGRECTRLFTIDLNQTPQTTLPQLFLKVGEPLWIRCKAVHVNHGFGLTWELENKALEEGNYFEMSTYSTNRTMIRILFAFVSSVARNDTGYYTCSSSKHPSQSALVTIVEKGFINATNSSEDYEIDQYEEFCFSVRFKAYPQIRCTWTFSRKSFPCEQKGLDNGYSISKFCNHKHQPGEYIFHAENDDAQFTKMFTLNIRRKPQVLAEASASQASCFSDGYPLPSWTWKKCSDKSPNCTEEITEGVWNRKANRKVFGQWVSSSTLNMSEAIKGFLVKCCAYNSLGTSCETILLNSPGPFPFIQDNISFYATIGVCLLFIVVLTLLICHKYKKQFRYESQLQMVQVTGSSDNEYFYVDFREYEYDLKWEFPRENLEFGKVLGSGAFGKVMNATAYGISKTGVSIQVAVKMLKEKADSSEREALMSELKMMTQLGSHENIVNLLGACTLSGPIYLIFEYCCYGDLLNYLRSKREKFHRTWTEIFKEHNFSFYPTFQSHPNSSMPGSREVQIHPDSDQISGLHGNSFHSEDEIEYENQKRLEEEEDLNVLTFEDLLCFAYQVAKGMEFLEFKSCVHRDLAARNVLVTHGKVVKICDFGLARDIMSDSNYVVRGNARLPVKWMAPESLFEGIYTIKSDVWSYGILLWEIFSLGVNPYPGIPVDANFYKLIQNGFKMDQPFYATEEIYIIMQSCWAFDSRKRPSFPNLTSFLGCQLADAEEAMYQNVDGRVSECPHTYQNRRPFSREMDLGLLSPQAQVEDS

[9] = biological target: 5'-AMP-activated protein kinase catalytic subunit alpha-1 (Homo sapiens, UniProt Q13131); assay: Selectivity interaction (KinomeScan (DiscoverX)) EUB0000045b PRKAA1
Chain of 5'-AMP-activated protein kinase catalytic subunit alpha-1 (Q13131 whole entry, looked up): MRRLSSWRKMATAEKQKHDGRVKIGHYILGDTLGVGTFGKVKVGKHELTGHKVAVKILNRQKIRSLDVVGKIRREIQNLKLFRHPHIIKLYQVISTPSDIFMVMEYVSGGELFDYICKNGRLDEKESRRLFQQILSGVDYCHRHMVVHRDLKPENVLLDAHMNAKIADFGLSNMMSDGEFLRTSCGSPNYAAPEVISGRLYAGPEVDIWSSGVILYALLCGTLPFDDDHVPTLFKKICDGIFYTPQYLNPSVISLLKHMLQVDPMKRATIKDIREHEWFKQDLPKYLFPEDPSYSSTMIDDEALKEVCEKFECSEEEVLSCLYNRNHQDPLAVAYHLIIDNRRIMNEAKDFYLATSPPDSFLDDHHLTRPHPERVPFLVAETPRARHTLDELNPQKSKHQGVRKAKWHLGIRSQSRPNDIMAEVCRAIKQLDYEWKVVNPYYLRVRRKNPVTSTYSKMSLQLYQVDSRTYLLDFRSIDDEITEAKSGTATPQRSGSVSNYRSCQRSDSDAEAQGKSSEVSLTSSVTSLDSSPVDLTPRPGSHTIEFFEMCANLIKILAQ

[10] = biological target: Serine/threonine-protein kinase/endoribonuclease IRE1 (Homo sapiens) (UniProt O75460); assay: Selectivity interaction (KinomeScan (DiscoverX)) EUB0000618a ERN1; conditions: at 10 µM
Chain of Serine/threonine-protein kinase/endoribonuclease IRE1 (Homo sapiens) (O75460 19-977 limits assumed): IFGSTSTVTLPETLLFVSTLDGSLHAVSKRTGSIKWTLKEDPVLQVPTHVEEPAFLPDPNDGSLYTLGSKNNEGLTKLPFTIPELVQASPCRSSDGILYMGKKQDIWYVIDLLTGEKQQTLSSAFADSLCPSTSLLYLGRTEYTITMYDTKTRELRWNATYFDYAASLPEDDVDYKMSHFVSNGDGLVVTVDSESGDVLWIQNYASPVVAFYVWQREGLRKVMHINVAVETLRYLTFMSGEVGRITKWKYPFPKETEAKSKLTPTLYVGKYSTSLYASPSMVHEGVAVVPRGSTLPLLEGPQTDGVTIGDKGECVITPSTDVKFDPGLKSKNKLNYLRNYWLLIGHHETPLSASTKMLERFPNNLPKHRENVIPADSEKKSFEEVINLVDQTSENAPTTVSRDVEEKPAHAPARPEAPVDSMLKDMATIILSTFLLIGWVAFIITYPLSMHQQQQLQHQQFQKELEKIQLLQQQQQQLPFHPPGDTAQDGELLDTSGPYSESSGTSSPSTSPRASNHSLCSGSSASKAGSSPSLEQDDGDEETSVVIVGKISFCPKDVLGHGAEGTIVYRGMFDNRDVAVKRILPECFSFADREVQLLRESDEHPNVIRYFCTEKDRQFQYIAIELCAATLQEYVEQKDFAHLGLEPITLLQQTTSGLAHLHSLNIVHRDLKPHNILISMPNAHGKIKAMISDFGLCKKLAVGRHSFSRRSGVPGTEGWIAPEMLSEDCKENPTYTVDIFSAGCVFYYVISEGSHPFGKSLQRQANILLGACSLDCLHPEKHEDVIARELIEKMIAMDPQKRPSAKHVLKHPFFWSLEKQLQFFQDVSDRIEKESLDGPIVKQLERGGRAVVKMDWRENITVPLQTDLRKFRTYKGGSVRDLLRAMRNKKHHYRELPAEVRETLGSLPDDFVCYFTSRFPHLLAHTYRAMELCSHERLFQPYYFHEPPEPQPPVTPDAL

[11] = biological target: Serine/threonine-protein kinase SBK1 (Homo sapiens) (UniProt Q52WX2); assay: Selectivity interaction (Ambit KINOMEscan and KiNATiv profiling in Jurkat cells) EUB0000090b SBK1; assay type: cell-based; conditions: at 1 µM
Chain of Serine/threonine-protein kinase SBK1 (Homo sapiens) (Q52WX2 whole entry): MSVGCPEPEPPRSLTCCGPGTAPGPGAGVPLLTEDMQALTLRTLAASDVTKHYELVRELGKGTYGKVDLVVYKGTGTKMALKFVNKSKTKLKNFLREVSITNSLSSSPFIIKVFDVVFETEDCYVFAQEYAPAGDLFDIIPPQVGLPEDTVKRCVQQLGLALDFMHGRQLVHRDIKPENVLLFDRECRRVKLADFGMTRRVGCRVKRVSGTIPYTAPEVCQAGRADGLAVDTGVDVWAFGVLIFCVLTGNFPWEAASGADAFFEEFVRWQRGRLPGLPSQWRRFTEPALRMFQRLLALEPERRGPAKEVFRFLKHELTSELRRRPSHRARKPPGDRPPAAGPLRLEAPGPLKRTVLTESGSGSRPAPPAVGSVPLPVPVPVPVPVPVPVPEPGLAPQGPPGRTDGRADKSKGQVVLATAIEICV

[12] = biological target: Serine/threonine-protein kinase pim-1 (Homo sapiens, UniProt P11309); assay: Selectivity interaction (KinomeScan (DiscoverX)) EUB0001619a PIM1; conditions: at 1 µM
Chain of Serine/threonine-protein kinase pim-1 (P11309 whole entry, looked up): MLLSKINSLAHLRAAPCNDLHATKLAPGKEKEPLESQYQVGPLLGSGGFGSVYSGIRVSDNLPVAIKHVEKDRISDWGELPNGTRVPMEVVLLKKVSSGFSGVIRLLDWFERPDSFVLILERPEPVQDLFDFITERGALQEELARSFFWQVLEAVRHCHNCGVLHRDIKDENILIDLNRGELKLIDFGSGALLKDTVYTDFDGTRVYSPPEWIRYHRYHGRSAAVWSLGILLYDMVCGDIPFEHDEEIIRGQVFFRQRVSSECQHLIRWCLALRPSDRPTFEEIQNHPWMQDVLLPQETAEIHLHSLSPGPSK

COc1cc(N(C)c2ccnc3ccc(C(F)(F)F)cc23)cc(OC)c1OC
% binding [1]: 100%

CCC(=O)N1CCN(c2ccc(-n3c(=O)ccc4cnc5ccc(-c6cnc7ccccc7c6)cc5c43)cc2C(F)(F)F)CC1
% of control [2]: 60%

CN(C)CCOc1ccc(-c2nc(-c3ccncc3)c(-c3ccc4c(c3)CC/C4=N\O)[nH]2)cc1
% of control [3]: 93%

Cc1cc([C@@H](C)Nc2ccccc2C(=O)O)c2nc(N3CCOCC3)cc(=O)n2c1 [AZD-6482]
IC50 [4]: 10 nM

Cn1cc(-n2cnc3c(NCc4nc5cc(Cl)c(Cl)cc5[nH]4)nc(N4CCOCC4)nc32)cn1
% of control [5]: -10.9%

COc1cc(Nc2nc(C)cc(-c3cnn4nc(OC)ccc34)n2)cc(C(F)(F)F)c1
% of control [6]: 100%
% of control [7]: 83%

Cc1cc(F)c(C(=O)Nc2cccc(-c3nncn3C(C)C)n2)cc1-n1cnc(C2CC2)c1
% of control [8]: 100%

C=CC(=O)Nc1cc(-n2c(=O)ccc3cnc4ccc(-c5ccc(NS(C)(=O)=O)cc5)cc4c32)ccc1C
% of control ([9]; at 1 µM): 100%
% of control ([9]; at 10 µM): 100%

O[C@H]1CC[C@H](Nc2ncc3nc(Nc4c(F)cc(F)cc4F)n([C@H]4CCOC4)c3n2)CC1
% of control [10]: 46%

CN(C)C/C=C/C(=O)Nc1ccc(C(=O)N2CCCC(Nc3ncc(Cl)c(-c4c[nH]c5ccccc45)n3)C2)cc1 (stereo not drawn)
% of control [11]: 100%

N#Cc1cccc(-c2c[nH]c3ncnc(N4CCOCC4)c23)c1
% of control [12]: 100%
